Source: paper PMC9832347 (2023)

Test system: Probe DNA / complementary DNA (porcine) hybrid (DNA, duplex) CTGATAGTAGATTTGTGATGACCGTAGCCC/CTACGGTCATCACAAATCTACTATCAG
Assay: differential pulse voltammetry, redox indicator on DNA electrode
Settings: 30 μM 2b mixed with complementary DNA 1 × 10^-8 M; buffer wash; peak 1.45 μA; qualitative

binding: yes
SMILES: CC1=NCCNC(C)(C)CC(C)=NCCNC(C)(C)C1.[Cu+2]
